Assay results published in PubChem BioAssay AID1645868 (Buhrlage Lab, Dana-Farber Cancer Institute and Novartis …, 2021).
Activity calls are given as the source filed them.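 Rule for the calls: active = maximal percent inhibition of the deubiquitinase OTUD3 of at least 30% across the tested doses; inactive = the rest.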

Molecular target: OTU domain-containing protein 3 (Homo sapiens) (UniProt Q5T2D3)
Assay: Validation of screening hits, potency titration, in vitro enzymatic, OTU domain-containing protein 3 DUB inhibitors (AID 1645868)
Settings: purified OTUD3, ubiquitin-rhodamine cleavage fluorescence, 2 h

Chain of OTU domain-containing protein 3 (Homo sapiens) (Q5T2D3 whole entry, looked up, the tested form may be a part): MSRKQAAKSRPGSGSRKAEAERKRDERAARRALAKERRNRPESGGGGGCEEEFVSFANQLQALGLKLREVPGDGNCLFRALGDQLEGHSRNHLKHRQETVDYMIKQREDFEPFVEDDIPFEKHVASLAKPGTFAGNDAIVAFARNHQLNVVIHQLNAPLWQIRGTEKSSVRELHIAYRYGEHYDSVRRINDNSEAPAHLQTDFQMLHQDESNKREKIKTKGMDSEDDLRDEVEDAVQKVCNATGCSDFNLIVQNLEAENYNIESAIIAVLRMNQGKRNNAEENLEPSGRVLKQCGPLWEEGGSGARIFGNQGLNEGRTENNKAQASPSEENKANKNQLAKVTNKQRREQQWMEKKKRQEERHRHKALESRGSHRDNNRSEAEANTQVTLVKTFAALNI

Row | Compound | IC50
1 | CSc1ncc(C(=O)NC(C)c2ccccc2)c(-c2ccccc2)n1 (stereo not drawn) | 22.1 µM
2 | Cc1ccc(CNC(=O)CCCn2c(=O)c3sccc3n(CC(=O)OCc3ccccc3)c2=O)cc1 | 3.54 µM
3 | O=C(Cc1cccc2ccccc12)Nc1nc2ccc(F)cc2s1 | > 50 µM (inactive)
4 | NS(=O)(=O)c1cccc(NS(=O)(=O)c2ccc(/C=C/C(=O)OCC(=O)c3ccc(Br)cc3)cc2)c1 | > 50 µM (inactive)
5 | Clc1cc2nc(N3CCN(c4ccccn4)CC3)c3nncn3c2cc1Cl | 4.78 µM
6 | CCc1ccc2[nH]c(=O)c(CN(CCc3ccc(OC)c(OC)c3)C(=O)Nc3ccccc3)cc2c1 | > 50 µM (inactive)
7 | COc1ccc(CC(=O)NCc2ccc3[nH]c(C)cc3c2)cc1 | > 50 µM (inactive)
8 | CCc1c(Cl)c(O)c(Cl)c(O)c1C(=O)O[C@H]1C(C)O[C@@H](OC/C2=C\C=C\CC(O)/C(C)=C/C(CC)C(O[C@@H]3OC(C)(C)[C@H](O)C(OC(=O)C(C)C)[C@@H]3O)/C(C)=C/C(C)=C/CC(C(C)O)OC2=O)[C@@H](OC)C1O (stereo partly drawn) | > 50 µM (inactive)
9 | Cc1ccc(Nc2nc(O)c(CC(=O)Nc3ccccc3C)s2)cc1C | 20 µM
10 | COc1cccc2c1C(=O)c1ccc3c(c1C2=O)C(=O)CC(C)(O)C3 (stereo not drawn) | > 50 µM (inactive)
11 | CCn1cnc2c(-c3ccccc3)cn(CC(=O)NCc3ccc4c(c3)OCO4)c2c1=O | > 50 µM (inactive)
12 | CSc1cccc(NC(=O)CNC(=O)c2cc3ccccc3o2)c1 | > 50 µM (inactive)
13 | Cc1c(Cl)cccc1NC(=O)Cn1c(=O)c2ccccc2n2nncc12 | > 50 µM (inactive)
14 | COCCNC(=O)c1ccn(-c2ccc3ccc(-c4ccncc4)cn23)n1 | > 50 µM (inactive)
15 | c1ccc(CN2CCN(c3nc4ccccc4n4nnnc34)CC2)cc1 | > 50 µM (inactive)
16 | Cc1ccc(NC(=O)Cc2nnc3c(-c4nc(C5CC5)no4)cccn23)cc1 | 31.3 µM
17 | Cc1ccc(C)c(-c2cc3c(=O)n(Cc4noc(CN5CCCCC5)n4)ccn3n2)c1 | > 50 µM (inactive)
18 | COCCn1c(=S)[nH]c2cc(C(=O)NCCSCc3ccccc3)ccc2c1=O | > 50 µM (inactive)
19 | Cc1cc(NCC2CC2)n2nc(Nc3cc(Cl)ccc3C)nc2n1 | > 50 µM (inactive)
20 | O=C(NCc1ccc(Br)cc1)c1ccc(-c2cccnc2)nc1 | > 50 µM (inactive)
21 | CCOc1ccc(CCNC(=O)CCC(=O)Nc2ccc3nc(N4CCN(C)CC4)cc(C)c3c2)cc1OCC | > 50 µM (inactive)
22 | O=C(Nc1ccc2c(c1)OCO2)c1[nH]nc2c1CCc1ccccc1-2 | > 50 µM (inactive)

Row | Compound | IC50
23 | Cc1ccc2c(=O)c(C(=O)Nc3ccccc3)cn(CC(=O)NC3CCCCC3)c2n1 | > 50 µM (inactive)
24 | CC(C)(C)C(=O)Nc1ccc(C(=O)Nc2cccc(-c3nnc(-c4ccccc4)o3)c2)cc1 | 16.8 µM
25 | O=c1c(OC2O[C@H](CO)[C@H](O)[C@H](O)[C@H]2O)c(-c2ccc(O)cc2)oc2cc(O)cc(O)c12 (stereo partly drawn) | 49.9 µM
26 | O=C(CCCc1c[nH]c2ccccc12)Nc1ccc2c(c1)OCCO2 | > 50 µM (inactive)
27 | O=C1C[C@@H]2O[C@H](CNC(=O)[C@@H]3CN(CCN3C(=O)C3CCOCC3)C(=O)[C@@H]3C[C@@H](CN3Cc3ccc(F)c(F)c3)N1)[C@@H](O)[C@H]2O | > 50 µM (inactive)
28 | COc1cc2c(cc1NC(=O)c1ccc(-n3cnnn3)cc1)oc1ccccc12 | > 50 µM (inactive)
29 | CC(C)CC(=O)Nc1cc(F)c2nc(N3CCOCC3)ccc2c1 | > 50 µM (inactive)
30 | COc1cccc(NC(=O)Nc2ccc3nc4n(c(=O)c3c2)CCCC4)c1 | > 50 µM (inactive)
31 | O=S(=O)(c1cccc(F)c1)N1CCN(c2nnnn2-c2ccccc2)CC1 | > 50 µM (inactive)
32 | O=C(c1cc(Cl)ccc1Cl)N1CCN(c2ccc3nnc(-c4ccco4)n3n2)CC1 | > 50 µM (inactive)
33 | Cc1cccc(NC(=O)Cn2c(=O)n(Cc3ccc(F)cc3)c(=O)c3sccc32)c1 | 17.5 µM
34 | C/C1=C/C=C/[C@H](C)[C@H](O)[C@@H](C)[C@@H](O)[C@@H](C)[C@H](O)[C@H](C)[C@@H](O)[C@@H](C)/C=C(/C)C(=O)c2c(O)c(C)cc3c2C(=O)C=C(NC1=O)C3=O | > 50 µM (inactive)
35 | O=c1ccc(-c2noc(-c3ccc4cc[nH]c4c3)n2)c[nH]1 | > 50 µM (inactive)
36 | COC(=O)COc1ccc(/C=N/NC(=O)c2ccc(CN3CCc4ccccc4C3)cc2)cc1 | 43.8 µM
37 | CC1CCCN(CCCNC(=O)c2ccc(N3CCc4ccccc43)s2)C1 (stereo not drawn) | > 50 µM (inactive)
38 | Oc1ccc(-c2nc3cnccn3c2NCCc2ccccc2)c(O)c1 | > 50 µM (inactive)
39 | CC(=O)c1ccc(Cc2ncc(C(F)(F)F)cc2Cl)s1 | > 50 µM (inactive)
40 | CC1Cc2ccccc2N1C(=O)Cn1c(=O)cc(O)c2ccccc21 (stereo not drawn) | > 50 µM (inactive)
41 | COc1ccc(COC(=O)C2=C(C)NC(=O)CC2c2cccc([N+](=O)[O-])c2)cc1 (stereo not drawn) | > 50 µM (inactive)
42 | CN1CC2CN(C(=O)c3ccc(F)cc3)CCN2Cc2ccccc21 (stereo not drawn) | > 50 µM (inactive)
43 | COc1cc(Cl)ccc1Nc1ncc(C(=O)Nc2cc(OC)c(OC)c(OC)c2)c2ccccc12 | 0.121 µM
44 | Cc1cc(C(=O)N2CCN(C3CCN(Cc4ccc(Cl)o4)CC3)C(=O)C2)c(C)o1 | > 50 µM (inactive)

Row | Compound | IC50
45 | CCOC(=O)c1sc2c(c1C)c(=O)n(Cc1ccccc1)c(=O)n2CC(N)=O | > 50 µM (inactive)
46 | CN(CCc1ccccc1)c1nccc(N2CCN(C(=O)c3csc(-c4cccnc4)n3)CC2)n1 | > 50 µM (inactive)
47 | CCc1ccc(NC(=O)Cc2nnc3cc(-c4nc(C)no4)ccn23)cc1 | 29.2 µM
48 | COc1ccc(C2/C(=C(\O)c3ccccc3)C(=O)C(=O)N2c2nc3ccc(F)cc3s2)cc1 (stereo not drawn) | 33.8 µM
49 | CCOc1ccc2c(c1)c(=O)c(C(=O)c1ccccc1)cn2CC(=O)Nc1ccccc1 | 19.4 µM
50 | Cc1c(C(=O)c2ccccc2)c2ccccn2c1CCc1ccccn1 | > 50 µM (inactive)
51 | O=C(Nc1cccc2ccccc12)N1CCC(c2nc3c(nnn3Cc3ccc(F)cc3)c(=O)[nH]2)CC1 | > 50 µM (inactive)
52 | N=C1C(c2nc3ccccc3s2)=C(O)CN1Cc1ccc(F)cc1 | > 50 µM (inactive)
53 | CCCc1nc2sc3c(NCCN4CCOCC4)ncnc3c2c2c1CCC2 | > 50 µM (inactive)
54 | Cc1cccc(O)c1-c1nc2c(-c3nc4c(C(=O)O)cccc4o3)cccc2o1 | > 50 µM (inactive)
55 | Cc1ccc2c(c1)c(=O)c(C(=O)c1ccccc1)cn2CC(=O)Nc1ccccc1 | 31.5 µM
56 | CSc1ccc(CNCc2c(C(=O)O)n(Cc3ccccc3)c3cc(C)ccc23)cc1 | > 50 µM (inactive)
57 | O=C(NCc1cccnc1)c1cnn2c(C(F)(F)F)cc(-c3ccccc3)nc12 | > 50 µM (inactive)
58 | Cc1cc(=O)oc2cc(OCC(=O)Nc3cc(Cl)ccc3N3CCOCC3)ccc12 | > 50 µM (inactive)
59 | Nc1c(-c2ccc(Cl)cc2)cnc2nc(Sc3ncc(C(F)(F)F)cc3Cl)nn12 | > 50 µM (inactive)
60 | C=C(NC(=O)C(=C)NC(=O)c1csc(C2=N[C@@H]3c4csc(n4)[C@H]4NC(=O)c5csc(n5)[C@H]([C@](C)(O)[C@@H](C)O)NC(=O)[C@H]5CSC(=N5)/C(=C/C)NC(=O)C([C@@H](C)O)NC(=O)c5csc(n5)C3(CC2)NC(=O)[C@H](C)NC(=O)C(=C)NC(=O)[C@H](C)NC(=O)C([C@@H](C)CC)N[C@@H]2C=Cc3c(C(C)O)cc(nc3[C@H]2O)C(=O)OC4C)n1)C(N)=O (stereo partly drawn) | > 50 µM (inactive)
61 | O=C(Nc1ccc2c(c1)OCCO2)c1cc(CN2CCOCC2)on1 | > 50 µM (inactive)
62 | COc1ccc(-c2cc(C(=O)N3CCN(c4ccc([N+](=O)[O-])cc4)CC3)[nH]n2)cc1 | > 50 µM (inactive)
63 | CC(=O)c1ccc(NC(=O)C2CCN(c3cncnc3N3CCCC3)CC2)cc1 | > 50 µM (inactive)
64 | O=C(OC1CSc2nc3ccccc3n2C1)c1ccc([N+](=O)[O-])o1 (stereo not drawn) | 25.7 µM
65 | Cc1ccccc1C(=O)OCCN1C(=O)c2cccc3c(N4CCCCC4)ccc(c23)C1=O | > 50 µM (inactive)
66 | CC(=O)c1cccc(NC(=O)c2ccc3[nH]c4c(c3c2)CC(C)CC4)c1 (stereo not drawn) | > 50 µM (inactive)

Row | Compound | IC50
67 | Cc1c(S(=O)(=O)NC2CCCCNC2=O)sc2ccc(Cl)cc12 (stereo not drawn) | > 50 µM (inactive)
68 | COCCCn1c(C(=O)Nc2ccccc2OC)cc2c(=O)n3ccccc3nc21 | > 50 µM (inactive)
69 | COc1cc(NC(=O)COC(=O)Cn2cnc3ccccc32)cc(OC)c1 | > 50 µM (inactive)
70 | Cc1sc2ccn(C)c(=O)c2c1C(=O)NC1CCCC1 | 30.8 µM
71 | Fc1ccccc1N1CCN(c2ncc3c(n2)CCN(Cc2ccccn2)C3)CC1 | > 50 µM (inactive)
72 | COc1ccc(CN2CCCC23CCCN(C(=O)CCc2cccnc2)C3)cc1F (stereo not drawn) | 49.5 µM
73 | CC(NC(=O)c1ccccc1)c1nc2ccccc2n1CC(=O)Nc1ccc2c(c1)OCO2 (stereo not drawn) | 3.53 µM
74 | O=C(Cn1c(=O)n(CCCC(=O)N2CC=C(c3ccccc3)CC2)c(=O)c2ccccc21)NCCC1=CCCCC1 | > 50 µM (inactive)
75 | O=C(NCc1ccc2c(c1)OCO2)c1ccc(C2SCC(=O)N2Cc2ccco2)cc1 (stereo not drawn) | > 50 µM (inactive)
76 | Cc1nnc(NCc2cccnc2)c2c1nnn2Cc1ccccc1Cl | > 50 µM (inactive)
77 | Cn1ncc2c(=O)n(Cc3cccc(Cl)c3)cnc21 | > 50 µM (inactive)
78 | O=C(NCc1ccc2c(c1)OCO2)c1cc(-c2cc(Cl)ccc2O)n[nH]1 | 40.7 µM
79 | COc1cccc(N2C(=O)N(CC(=O)NCc3ccc(Cl)cc3)c3ccccc3S2(=O)=O)c1 | 20 µM
80 | Cc1cccc(-c2noc(CCn3c(=O)[nH]c4ccccc4c3=O)n2)c1 | > 50 µM (inactive)
81 | O=C(CSc1nnc(-c2ccc3c(c2)OCO3)n1-c1ccccc1)OCC(=O)c1ccccc1 | > 50 µM (inactive)
82 | Cc1cccc(NC(=O)c2ccn(COc3ccc(F)cc3F)n2)c1C | > 50 µM (inactive)
83 | Cn1c(=O)[nH]c2nncnc2c1=O | > 50 µM (inactive)
84 | CC1CCN(c2cc(-n3cnc(C(=O)N4CCCCC4)c3)ncn2)CC1 | > 50 µM (inactive)
85 | COc1ccc(NC(=O)C2CCCN(S(=O)(=O)N3CCCCCC3)C2)cc1 (stereo not drawn) | > 50 µM (inactive)
86 | Cc1csc2ncc(C(=O)N3CCN(c4ccccc4F)CC3)c(=O)n12 | > 50 µM (inactive)
87 | Cc1ccc2nc(NC(=O)CSc3nnc(-c4ccncc4)n3C3CC3)sc2c1 | > 50 µM (inactive)
88 | COc1ccc(NC(=O)CSc2oc(-c3ccc(C)cc3)nc2S(=O)(=O)c2ccc(Br)cc2)c(OC)c1 | > 50 µM (inactive)
